From patent EP4335865A1, “INTERACTION BETWEEN A GLYCOLIPID AND MAJOR CAPSID PROTEIN (VP1) OF SHEEP POLYOMAVIRUS AND, METHODS, KITS AND USES THEREOF” (Eberhard-Karls-Universität Tübingen, priority 2022, dated 2024)

Assays:
ShPyV VP1 [1] = test: Saturation-transfer difference (STD) NMR in solution; type: binding, sheep polyomavirus (ShPyV); details: 1 mM Forssman pentaose and 1 mM 6'SL in presence of 20 µM ShPyV VP1, 298 K
Excerpt: To assess whether the interaction of ShPyV VP1 to Forssman pentaose (FP), the glycan portion of Forssman glycolipid, also occurs in a more physiologic setting (i.e., in solution), the inventors conducted a saturation-transfer difference (STD) NMR experiment. […] Thereby, the protein resonances remain invisible. 59,60 The inventors recorded the STD-NMR resonances from a sample comprising VP1 and the oligosaccharides Forssman pentaose and 6sialyllactose (6'SL) as ligands, for which the inventors also provide reference spectra (Fig. 2B-C). […] Since excitation transfer heavily falls off with distance, VP1 is expected to contact an extensive portion of FP during the binding event.
All nuclear magnetic resonance (NMR) data were collected in a Bruker AVIII-600 MHz spectrometer equipped with a TXI-z probe head at 298 K. The inventors performed the experiments using 3 mm NMR tubes. Samples were provided in 99 % D2O-PBS containing 20 mM KH2PO4/K2HPO4 (pH 7.4) and 150 mM NaCl. Initially, ^1H reference spectra of isolate oligosaccharides samples (4 mM Forssman pentaose and 2 mM 6'SL, respectively) were recorded. Subsequently, the ^1H resonances of a sample comprising 1 mM Forssman pentaose and 1 mM 6'SL in presence of 20 µM ShPyV VP1 were collected. From the same sample, the saturation difference transfer (STD) NMR experiment was performed. […]

[2] = system: major capsid protein VP1 of sheep polyomavirus (ShPyV); test: Glycan microarray screening of recombinant VP1; type: binding; details: broad spectrum glycan microarray of over 900 different carbohydrate structures
Excerpt: To identify potential attachment factors of sheep polyomavirus (ShPyV), the inventors subjected the recombinantly expressed major capsid protein VP1 to broad spectrum glycan microarray screening of over 900 different carbohydrate structures (Fig. 1A). […] Among the four strongest reliable signals in the glycan array, which are depicted in figure 1, two stem from glycans carrying α→6 linked sialic acids, which are 9-O-Acetyl-N-acetylneuraminic acid (Neu5,9Ac) and N-glycolyl-neuraminic acid (Neu5Gc).
Among all carbohydrates in the glycan array the Forssman glycolipid is the only probe that features the Forssman disaccharide GalNAcα→3GalNAcβ.

ShPyV VP1 [3] = test: Derivatization of VP1 crystals with oligosaccharides and structure solution; type: binding, sheep polyomavirus (ShPyV); details: crystals soaked with oligosaccharide (10 mM globo-N-tetraose)
Excerpt: The inventors presume that the Forssman disaccharide GalNAcα^5→3GalNAc^4, which promotes the hydrophobic interactions to VP1, is the main determinant for tropism. To corroborate this hypothesis, the inventors derivatized ShPyV VP1 crystals with globo-N-tetraose (Gb4), the glycan of the globoseries P antigen and molecular precursor of FP, and determined the structure of the complex (Table S2).
Additionally, the structural elucidation of the VP1-FP complex allows for the superposition of the epitopes of other aGalNAc antigens such as A (GalNAcα→3(Fucα→2)Gal-R) and Tn (GalNAcα→O-Ser/Thr) into the identified Forssman binding site.
Purified ShPyV VP1 was concentrated to 3.5 mg/ml. Crystallization droplets were set up comprising 1 µl protein and 1 µl reservoir solution (150 mM KSCN and 20 % (w/v) PEG 3,350). The droplets were equilibrated against the 500 µl reservoir using the hanging drop vapor diffusion method at 20 °C. For ligand derivatization, VP1 crystals were soaked in crystallization solution supplemented with the respective oligosaccharides (10 mM FA pentaose, 10 mM globo-N-tetraose, 5 mM FA pentaose + 20 mM 3'SLN, and 5 mM pentaose + 20 mM 6'SLN), at 20 °C for half an hour. Prior to flash freezing, crystals were transferred to soaking solutions supplemented with 20 % (v/v) MPD for cryo-protection. X-ray diffraction experiments were performed using the Swiss Light Source (SLS) beamline X06DA at the PSI (Villigen, Switzerland). Data were collected at a wavelength of 1 Å and an excitation time and angle of 0.1 s and 0.1° per image, respectively. All carbohydrates were purchased from Carbosynth, UK.
X-ray diffraction images were integrated and scaled using XDS software. For each data set, 2000-3000 reflections were reserved as a test set for structure validation. Phases were determined by molecular replacement using the native sheep polyomavirus VP1 structure as search model (PDB ID 6Y61) in PHASER (CCP4). […]

[4] = system: FORS+ cell binding by HPA; test: Inhibition assay of HPA binding to ovine blood cells; type: cell-based, sheep; details: exceeding amounts of trisaccharide inhibitor (Fig. 5C)
Procedure: The inventors also examine the engagement of FORS- human erythrocytes by ShPyV VP1 and compare the results to HPA, which is a commonly used indicator for aberrant glycosylation in cancerogenesis. […] In contrast, FORS+ cell binding by HPA is inhibited by exceeding amounts of both F-tri and A-tri (Fig. 5C).
Erythrocytes from defibrinated blood were diluted into FACS buffer (1× PBS + 2 % FCS) to a density of 10×10^6 cells / mL. Samples of 1×10^6 cells were incubated with labeled protein at room temperature for 30 minutes with occasional shaking. Samples were then directly transferred to the flow cytometer (LSR II, BD Biosciences). Singlet cells were gated and the fluorescent population was captured at […]. M1/87-FITC (Santa Cruz Biotechnology) and HPA Alexa Fluor™ 488 conjugate (Invitrogen), respectively were used as references. Defibrinated sheep and bovine blood were purchased from TCS Biosciences Ltd and BioTrading Benelux B.V., respectively.

ShPyV VP1 [5] = test: Crystallographic affinity determination (glycan dilution series in VP1 crystals); type: binding, sheep polyomavirus (ShPyV); details: approximate; integrated FP electron density vs concentration, Michaelis-Menten approach; 10 mM down to 0.0195 mM FP; read-out: dissociation constant between VP1 and FP (crystallographic, Kdc)
Excerpt: Due to the costliness of Forssman glycans, conventional biophysical affinity determination techniques were not applied. To still establish an approximate dissociation constant value, the inventors derivatize isomorphous ShPyV VP1 crystals with serially diluted Forssman pentaose (FP) solution and collect the diffraction data.
To approximate the affinity towards FA pentaose (FP) the inventors prepared a glycan dilution series in VP1 crystals, an approach that was successfully utilized in the past. [16,23]_VP1 crystals were grown as described above. The reference soaking solution (10 mM FP in 150 mM KSCN, 20 % (w/v) PEG 3,350 and 20 % (v/v) MPD) was diluted using 1:2 steps down to a final concentration of 0.0195 mM. Distinct crystals and equal soaking times were used for the parallel derivatization with FP at the different concentrations. Data collection was performed as described above. For processing, the unit cell constants of all data sets were treated as isomorphous. All diffraction intensities were scaled against the 10 mM FP reference data set using scaleit. A single structure solution was sufficient for all data sets. A VP1 model lacking all water and carbohydrate atoms, and a control tripeptide (AA 143-145) in all chains, was used for simulated annealing refinement (Phenix). […]

[6] = molecular target: human Gal-9 carbohydrate recognition domain (CRD) (Homo sapiens, UniProt O00182); details: carbohydrate library screening, reference 62; cited from earlier work
human Gal-9 carbohydrate recognition domain (CRD), sequence (O00182 1-148 limits assumed): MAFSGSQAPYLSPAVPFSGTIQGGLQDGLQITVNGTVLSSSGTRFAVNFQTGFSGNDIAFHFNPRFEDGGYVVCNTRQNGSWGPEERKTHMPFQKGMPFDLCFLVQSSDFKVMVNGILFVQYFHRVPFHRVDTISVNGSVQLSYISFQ

Row | Molecule | glycan array response (binding to VP1) [2] | further results
1 | CC(=O)N[C@H]1[C@H]([C@H](O)[C@H](O)CO)O[C@@](OC[C@H]2O[C@@H](O[C@H]3[C@H](O)[C@@H](O)[C@H](O)O[C@@H]3CO)[C@H](O)[C@@H](O)[C@H]2O)(C(=O)O)C[C@@H]1O [6'SL, 6'sialyllactose] |  | STD-NMR binding to VP1 (ShPyV VP1 [1]): signal of a third methyl group in the STD-NMR spectrum manifests as the only transferred resonance
2 | CC(=O)N[C@H]1[C@H]([C@H](O)[C@H](O)CO)O[C@](OC[C@H]2O[C@@H](O[C@H]3[C@H](O)[C@@H](NC(C)=O)C(O)O[C@@H]3CO)[C@H](O)[C@@H](O)[C@H]2O)(C(=O)O)C[C@@H]1O (stereo partly shown) [6'sialyllactosamine] | relatively weak | 
3 | CC(=O)N[C@H]1[C@@H](O[C@H]2[C@@H](O)[C@@H](CO)O[C@@H](O)[C@@H]2O[C@@H]2O[C@@H](C)[C@@H](O)[C@@H](O)[C@@H]2O)O[C@H](CO)[C@H](O)[C@@H]1O [A antigen trisaccharide] |  | ligand electron density / binding in derivatized VP1 crystals (ShPyV VP1 [3]): unliganded VP1 pentamers; inhibition of FORS+ cell binding by HPA [4]: inhibited
4 | CC(=O)N[C@H]1[C@@H](O[C@H]2[C@@H](O)[C@@H](CO)O[C@@H](O[C@H]3[C@@H](O)[C@@H](CO)O[C@H](O[C@@H]4[C@H](O)[C@@H](O)[C@H](O[C@H]5[C@H](O)[C@@H](O)C(O)O[C@@H]5CO)O[C@@H]4CO)[C@@H]3O)[C@@H]2NC(C)=O)O[C@H](CO)[C@H](O)[C@@H]1O (stereo partly shown) [FP, GalNAcα^5→3GalNAcβ^4→3Galα^3→4Galβ^2→4Glc^1] |  | STD-NMR binding to VP1 (ShPyV VP1 [1]): binding of FP to VP1; Kd (ShPyV VP1 [5]): ~38.2 µM; Kd [6]: 0.3 µM
5 | CC(=O)N[C@H]1C(O)O[C@H](CO[C@@H]2O[C@H](CO)[C@H](O)[C@H](O)[C@H]2O)[C@H](O)[C@@H]1O (stereo partly shown) [Galβ-6GalNAc disaccharide, Galβ-6GalNAc] | relatively strong signal | 
6 | CC(=O)NC1C(OC2C(O)C(CO)OC(OC3C(CO)OC(OC4C(CO)OC(O)C(O)C4O)C(O)C3O)C2O)OC(CO)C(O)C1O (stereo not shown) [Gb4, globo-N-tetraose] |  | ligand electron density / binding in derivatized VP1 crystals (ShPyV VP1 [3]): negligible binding affinity
7 | GD3 tetraose | relatively weak | 
8 | GM1 pentaose | relatively weak | 
9 | GTic oligosaccharide | relatively weak | 
10 | GalNAcα1→3GalNAcβ1→3Galα1→4Galβ1→4Glcβ1->1Cer [Forssman glycolipid] | surprisingly strong response | 
11 | GalNAcα→3(Fucα→2)Gal-R [A antigen] | no significant binding | 
12 | GalNAcα→O-Ser/Thr [Tn antigen] | no significant binding | 
13 | Galβ→3-Tn [T antigen] |  | ligand electron density / binding in derivatized VP1 crystals (ShPyV VP1 [3]): unliganded VP1 pentamers
